Measured values published in patent US20100056568A1, “Cycloalkylamine substituted isoquinolone and isoquinolinone derivatives” (sanofi-aventis, priority 2006, published 2010).
Where a name gives a salt, the structure may show the parent alone.

Target: T1, human recombinant ROCK II (Homo sapiens, UniProt O75116)
T1 construct: recombinant human ROCK-II residues 11-552; His6 (N); purchased Upstate Ltd., Dundee, UK
Assay: Determination of Rho kinase inhibition (Caliper peptide phosphorylation assay)
Type: biochemical
Conditions: negative decadal logarithm of the IC50; ROCK II residues 11-552, fluorescein peptide substrate, 60 min at 32° C.; tested as salt or free base obtained in the examples
Procedure: To measure Rho-kinase inhibition, IC50 values were determined according to the following protocol:
Active human recombinant ROCK II (N-terminal His6-tagged recombinant human ROCK-II residues 11-552) was purchased from Upstate Ltd., Dundee, UK. The peptide substrate, Fluorescein-AKRRRLSSLRA-COOH, was obtained from JPT Peptide Technologies, Berlin, Germany. Adenosine-5′-triphosphate (ATP), bovine serum albumine (BSA), dimethylsulphoxide (DMSO), 4-(2-Hydroxyethyl)piperazine-1-ethanesulfonic acid (Hepes), Brij-35 and dithiothreitol (DTT) were purchased from Sigma-Aldrich, Munich, Germany. Tris(hydroxymethyl)-aminomethane (Tris), magnesium chloride, NaOH, 1M HCl and EDTA were obtained from Merck Biosciences, Darmstadt, Germany. “Complete” protease inhibitor was from Roche Diagnostics, Mannheim, Germany.
Test compounds were diluted to the appropriate concentrations in buffer 1 (25 mM Tris-HCl, pH 7.4, 5 mM MgCl2, 2 mM DTT, 0.02% (w/v) BSA and 3% DMSO). The ROCK II enzyme was diluted to a concentration of 100 ng/ml in buffer 2 (25 mM Tris-HCl, pH 7.4, 5 mM MgCl2, 2 mM DTT and 0.02% (w/v) BSA). The peptide substrate and ATP were diluted to concentrations of 3 μM and 120 μM, respectively, in the buffer 2. Two μl of the compound solution were mixed with 2 μl of the diluted enzyme in a 384-well small volume microtiter plate (Greiner, Bio-One, Frickenhausen, Germany), and the kinase reaction was initiated by addition of 2 μl of the solution containing peptide substrate and ATP. After 60 min incubation at 32° C., the reaction was stopped by addition of 20 μl of a solution containing 100 mM Hepes-NaOH, pH 7.4, 0.015% (v/v) Brij-35, 45 mM EDTA and 0.227% chip coating reagent 1 (Caliper Lifescience Inc, Hopkinton, Mass.). Phosphorylation of the substrate peptide was then detected on a Caliper 3000 instrument essentially as described by Pommereau et al (J. Biomol. Screening 9(5), 409-416, 2004). Separation conditions were as follows: Pressure −1.3 psi, upstream voltage −1562 V, downstream voltage −500 V, sample sip time 200 ms. Positive controls (buffer 1 instead of compound) and negative controls (buffer 1 instead of compound and buffer 2 instead of ROCK II) were run in parallel on each plate.
The following products/compounds were tested in said assay by using the respective form (salt or free base) obtained as in the examples described above and the following activities were measured.

T1 sequence (O75116 11-552): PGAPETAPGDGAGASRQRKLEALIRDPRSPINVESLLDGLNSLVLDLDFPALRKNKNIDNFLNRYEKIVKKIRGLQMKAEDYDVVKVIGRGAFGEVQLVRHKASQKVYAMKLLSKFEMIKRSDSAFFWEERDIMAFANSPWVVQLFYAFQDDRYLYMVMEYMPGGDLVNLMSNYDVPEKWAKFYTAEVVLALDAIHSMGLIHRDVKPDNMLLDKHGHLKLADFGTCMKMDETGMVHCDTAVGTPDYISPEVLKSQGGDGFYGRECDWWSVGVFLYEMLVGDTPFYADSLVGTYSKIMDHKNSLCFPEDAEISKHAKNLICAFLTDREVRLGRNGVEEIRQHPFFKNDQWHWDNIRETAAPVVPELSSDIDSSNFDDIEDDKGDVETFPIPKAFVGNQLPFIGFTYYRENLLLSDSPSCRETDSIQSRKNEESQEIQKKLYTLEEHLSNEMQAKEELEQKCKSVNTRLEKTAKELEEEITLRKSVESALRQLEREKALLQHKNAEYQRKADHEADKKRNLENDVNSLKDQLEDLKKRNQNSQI

Compound	IC50
CCN(CC)[C@H]1CC[C@@H](Nc2ccc3c(=O)[nH]ccc3c2)CC1 [Compound 44, 6-cis-(4-Diethyl-amino-cyclohexyl-amino)-2H-iso-quinolin-1-one]	1000 to 10000 nM
CCCN(CCC)[C@H]1CC[C@@H](Nc2ccc3c(=O)[nH]ccc3c2)CC1 [Compound 46, 6-cis-(4-Dipropyl-amino-cyclohexyl-amino)-2H-iso-quinolin-1-one]	1000 to 10000 nM
O=c1[nH]ccc2cc(N[C@H]3CC[C@@H](NCc4ccccc4)CC3)ccc12 [Compound 48, 6-cis-(4-Benzyl-amino-cyclohexyl-amino)-2H-iso-quinolin-1-one]	1000 to 10000 nM
CC(C)N[C@H]1CC[C@@H](Nc2ccc3c(=O)[nH]ccc3c2)CC1 [Compound 49, 6-cis-(4-Isopropyl-amino-cyclohexyl-amino)-2H-iso-quinolin-1-one]	1000 to 10000 nM
O=c1[nH]ccc2cc(N[C@H]3CC[C@@H](NCc4cccc(Cl)c4)CC3)ccc12 [Compound 50, 6-cis-[4-(3-Chloro-benzylamino)-cyclohexyl-amino]-2H-isoquinolin-1-one]	1000 to 10000 nM
O=c1[nH]ccc2cc(N[C@H]3CC[C@@H](NCc4ccc(Cl)cc4)CC3)ccc12 [Compound 51, 6-cis-[4-(4-Chloro-benzylamino)-cyclohexyl-amino]-2H-isoquinolin-1-one]	1000 to 10000 nM
N[C@H]1CC[C@@H](Sc2cc3cc[nH]c(=O)c3cc2Cl)CC1 [Compound 64, 6-cis-(4-Amino-cyclohexylsulfanyl)-7-chloro-2H-isoquinolin-1-one]	≤ 1000 nM

Second part, the molecule after the results:

IC50	Compound
≤ 1000 nM	N[C@H]1CCCC[C@H]1Nc1ccc2c(=O)[nH]ccc2c1 (relative stereo) [Compound 40, 6-cis-(2-Amino-cyclohexyl-amino)-2H-isoquinolin-1-one]
≤ 1000 nM	N[C@H]1CC[C@H](Nc2ccc3c(=O)[nH]ccc3c2)CC1 [Compound 36, 6-trans-(4-Amino-cyclohexyl-amino)-2H-isoquinolin-1-one]
≤ 1000 nM	NC1CCCC(Nc2ccc3c(=O)[nH]ccc3c2)C1 (centres unmarked) [Compound 41, 6-(3-Amino-cyclohexylamino)-2H-isoquinolin-1-one]
≤ 1000 nM	CCN[C@H]1CC[C@@H](Nc2ccc3c(=O)[nH]ccc3c2)CC1 [Compound 45, 6-cis-(4-ethylamino-cyclohexylamino)-2H-isoquinolin-1-one]
≤ 1000 nM	CCCN[C@H]1CC[C@@H](Nc2ccc3c(=O)[nH]ccc3c2)CC1 [Compound 47, 6-cis-(4-Propyl-amino-cyclohexyl-amino)-2H-iso-quinolin-1-one]
≤ 1000 nM	O=c1[nH]ccc2cc(N[C@H]3CC[C@@H](NCC4CCNCC4)CC3)ccc12 [Compound 52, 6-cis-{4-[(Piperidin-4-ylmethyl)-amino]-cyclohexyl-amino}-2H-isoquinolin-1-one]
≤ 1000 nM	O=c1[nH]ccc2cc(N[C@H]3CC[C@@H](NC4CC4)CC3)ccc12 [Compound 53, 6-cis-(4-Cyclopropyl-amino-cyclo-hexylamino)-2H-isoquinolin-1-one]
≤ 1000 nM	O=c1[nH]ccc2cc(N[C@H]3CC[C@@H](N(C4CC4)C4CC4)CC3)ccc12 [Compound 54, 6-cis-(4-Dicyclo-propyl-amino-cyclohexyl-amino)-2H-isoquinolin-1-one]
≤ 1000 nM	N[C@H]1CC[C@@H](Sc2cc3ccncc3cc2Cl)CC1 [Compound 61, cis-4-(7-Chloro-isoquinolin-6-ylsulfanyl)-cyclohexylamine]
≤ 1000 nM	N[C@H]1CC[C@@H](Sc2cc3ccncc3cc2Br)CC1 [Compound 62, cis-4-(7-Bromo-isoquinolin-6-ylsulfanyl)-cyclohexylamine hydrochloride]
